# Reference: ChEMBL document CHEMBL1201862, “PubChem BioAssay data set” (2004)
# Values joined by “and” are separate entries in the source; they are usually repeats but may differ in a detail not shown here. Equal values may be shown once.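 In this assay, cells in 96-well plates receive the compound at five concentrations for 48 hours. Endpoints are linearly interpolated between the surrounding concentrations. At the GI50, growth is halved.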 Active and inactive are the calls of the source. No stated cut-off is given here; in the data, active = GI50 up to about 1.1 µM and inactive = higher.
# Assays:
# Test in all cases: growth of human tumour cells (NCI), 48 h
# SK-OV-3 = tested on: SK-OV-3
# HL-60 = tested on: HL-60
# SK-MEL-2 = tested on: SK-MEL-2
# MCF7 = tested on: MCF7
# SNB-19 = tested on: SNB-19
# UACC-257 = tested on: UACC-257
# MDA-N = tested on: MDA-N
# NCI/ADR-RES = tested on: NCI/ADR-RES
# HCT-15 = tested on: HCT-15
# SR = tested on: SR
# HCT-116 = tested on: HCT-116
# COLO 205 = tested on: COLO 205
# MDA-MB-231 = tested on: MDA-MB-231
# SF-295 = tested on: SF-295
# OVCAR-8 = tested on: OVCAR-8
# NCI-H522 = tested on: NCI-H522
# ACHN = tested on: ACHN
# SNB-75 = tested on: SNB-75
# HOP-62 = tested on: HOP-62
# HOP-92 = tested on: HOP-92
# SW-620 = tested on: SW-620
# NCI-H460 = tested on: NCI-H460
# SK-MEL-5 = tested on: SK-MEL-5
# EKVX = tested on: EKVX
# SN12C = tested on: SN12C
# A549 = tested on: A549
# PC-3 = tested on: PC-3
# UACC-62 = tested on: UACC-62
# SF-268 = tested on: SF-268
# Hs-578T = tested on: Hs-578T
# M14 = tested on: M14
# LOX IMVI = tested on: LOX IMVI
# MOLT-4 = tested on: MOLT-4
# T47D = tested on: T47D
# 786-0 = tested on: 786-0
# DU-145 = tested on: DU-145
# OVCAR-3 = tested on: OVCAR-3
# IGROV-1 = tested on: IGROV-1
# Malme-3M = tested on: Malme-3M
# HT-29 = tested on: HT-29
# NCI-H226 = tested on: NCI-H226
# MDA-MB-435 = tested on: MDA-MB-435
# HCC 2998 = tested on: HCC 2998
# NCI-H23 = tested on: NCI-H23
# RPMI-8226 = tested on: RPMI-8226
# SF-539 = tested on: SF-539
# A498 = tested on: A498
# U-251 = tested on: U-251
# RXF 393 = tested on: RXF 393
# SK-MEL-28 = tested on: SK-MEL-28
# UO-31 = tested on: UO-31
# KM12 = tested on: KM12
# TK-10 = tested on: TK-10
# CAKI-1 = tested on: CAKI-1
# OVCAR-5 = tested on: OVCAR-5
# CCRF-CEM = tested on: CCRF-CEM
smiles,measurement,setting,value
CN1C2CC(C#N)C1C=CC2=O (centres undefined),GI50,SK-OV-3,43.1 µM (inactive) and 24.8 µM (inactive)
same,GI50,HL-60,18.9 µM (inactive) and 34.1 µM (inactive)
same,GI50,SK-MEL-2,29 µM (inactive) and 33.7 µM (inactive)
same,GI50,MCF7,33.3 µM (inactive) and 57.8 µM (inactive)
same,GI50,SNB-19,87.1 µM (inactive)
CC(C)(C)[Si](C)(C)OCC1OC(n2cc(I)c(N)nc2=O)C(O[Si](C)(C)C(C)(C)C)C1O[Si](C)(C)C(C)(C)C (centres undefined),GI50,UACC-257,11.5 µM (inactive)
same,GI50,MDA-N,12.2 µM (inactive)
same,GI50,NCI/ADR-RES,34.1 µM (inactive)
same,GI50,HCT-15,18.6 µM
same,GI50,SR,5.37 µM (inactive)
same,GI50,HCT-116,9.42 µM (inactive)
same,GI50,COLO 205,16.1 µM (inactive)
same,GI50,MDA-MB-231,13.3 µM (inactive)
same,GI50,SF-295,3.16 µM (inactive)
same,GI50,OVCAR-8,12.5 µM (inactive)
same,GI50,NCI-H522,3.56 µM (inactive)
same,GI50,ACHN,10.2 µM (inactive)
same,GI50,SNB-75,14.3 µM (inactive)
same,GI50,HOP-62,14.5 µM (inactive)
same,GI50,HOP-92,19.1 µM (inactive)
same,GI50,SW-620,4.58 µM (inactive)
same,GI50,NCI-H460,7.19 µM (inactive)
same,GI50,SK-MEL-5,10.4 µM (inactive)
same,GI50,SK-OV-3,15.5 µM (inactive)
same,GI50,EKVX,18.6 µM (inactive)
same,GI50,SK-MEL-2,5.02 µM (inactive)
same,GI50,SN12C,8.28 µM (inactive)
same,GI50,A549,6.58 µM (inactive)
same,GI50,PC-3,3.4 µM (inactive)
same,GI50,UACC-62,10.3 µM (inactive)
same,GI50,SF-268,12.7 µM (inactive)
same,GI50,Hs-578T,11.4 µM (inactive)
same,GI50,M14,5.04 µM (inactive)
same,GI50,LOX IMVI,5.43 µM (inactive)
same,GI50,MOLT-4,2.5 µM (inactive)
same,GI50,T47D,> 10 µM (inactive)
same,GI50,786-0,1.99 µM (inactive)
same,GI50,DU-145,13.3 µM (inactive)
same,GI50,OVCAR-3,10.5 µM (inactive)
same,GI50,IGROV-1,5.73 µM (inactive)
same,GI50,Malme-3M,11.3 µM (inactive)
same,GI50,HT-29,5.26 µM (inactive)
N#Cc1c(N)oc(-c2cccc([N+](=O)[O-])c2)c1C#N,GI50,UACC-257,21.8 µM (inactive)
same,GI50,NCI/ADR-RES,30.5 µM (inactive)
same,GI50,HCT-15,16.1 µM
same,GI50,NCI-H226,43.2 µM (inactive)
same,GI50,MDA-MB-435,31.2 µM (inactive)
same,GI50,SR,46.6 µM (inactive)
same,GI50,HCT-116,33.7 µM (inactive)
same,GI50,COLO 205,20.9 µM (inactive)
same,GI50,MDA-MB-231,37.1 µM (inactive)
same,GI50,SF-295,> 100 µM (inactive)
same,GI50,HCC 2998,19.5 µM (inactive)
same,GI50,OVCAR-8,21.1 µM (inactive)
same,GI50,NCI-H522,23.7 µM (inactive)
same,GI50,ACHN,19.1 µM (inactive)
same,GI50,NCI-H23,21.4 µM (inactive)
same,GI50,SNB-75,21.9 µM (inactive)
same,GI50,HOP-62,> 10 µM (inactive)
same,GI50,HOP-92,17.4 µM (inactive)
same,GI50,SW-620,24.1 µM (inactive)
same,GI50,RPMI-8226,22 µM (inactive)
same,GI50,SF-539,23.2 µM (inactive)
same,GI50,SK-MEL-5,19.6 µM (inactive)
same,GI50,SK-OV-3,> 100 µM (inactive)
same,GI50,EKVX,12.9 µM (inactive)
same,GI50,HL-60,28.5 µM (inactive)
same,GI50,A498,21 µM (inactive)
same,GI50,SK-MEL-2,44.5 µM (inactive)
same,GI50,SN12C,38.6 µM (inactive)
same,GI50,U-251,27.5 µM (inactive)
same,GI50,A549,> 100 µM (inactive)
same,GI50,PC-3,62.8 µM (inactive)
same,GI50,UACC-62,30 µM (inactive)
same,GI50,SF-268,31.4 µM (inactive)
same,GI50,Hs-578T,32.8 µM (inactive)
same,GI50,MCF7,53.3 µM (inactive)
same,GI50,RXF 393,24.8 µM (inactive)
same,GI50,SK-MEL-28,19.5 µM (inactive)
same,GI50,UO-31,16.7 µM (inactive)
same,GI50,M14,46.9 µM (inactive)
same,GI50,LOX IMVI,31.6 µM (inactive)
same,GI50,KM12,> 10 µM (inactive)
same,GI50,TK-10,22.1 µM (inactive)
same,GI50,CAKI-1,20.7 µM (inactive)
same,GI50,SNB-19,31.6 µM (inactive)
same,GI50,OVCAR-5,82.4 µM (inactive)
same,GI50,T47D,50 µM (inactive)
same,GI50,786-0,27.7 µM (inactive)
same,GI50,DU-145,> 100 µM (inactive)
same,GI50,IGROV-1,23.6 µM (inactive)
same,GI50,Malme-3M,24.4 µM (inactive)
same,GI50,CCRF-CEM,27 µM (inactive)
same,GI50,HT-29,20 µM (inactive)
